From PubChem BioAssay AID256 (DTP/NCI, 2004)
“And” between values parts separate entries of the source, which are not always exact repeats. Equal entries are not always repeated. Inconclusive results and toxic doses are left out. How the source made its calls: active means survival T/C of 150% or more; inactive means T/C below 125% in these data.

System: CD2F1 mice, L1210 leukemia ip, survival T/C
Experiment: NCI In Vivo Anticancer Drug Screen. Data for tumor model L1210 Leukemia (intraperitoneal) in CD2F1 (CDF1) mice
Settings: higher = longer survival
Procedure, shortened: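 Read-out first: treated-group measurement over vehicle-control measurement, expressed as a ratio. Animals bore a transplanted tumor line and were dosed with compound or vehicle.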

[1] = endpoint: mean survival time, dose: 100.0 mg/kg/injection, schedule: Q04DX003 (ip), vehicle: saline with Tween-80
[2] = endpoint: mean survival time, dose: 200.0 mg/kg/injection, schedule: Q04DX003 (ip), vehicle: saline with Tween-80
[3] = endpoint: mean survival time, dose: 400.0 mg/kg/injection, schedule: Q04DX003 (ip), vehicle: saline with Tween-80
[4] = endpoint: mean survival time, dose: 100.0 mg/kg/injection, schedule: Q01DX001 (ip), vehicle: saline with Tween-80
[5] = endpoint: mean survival time, dose: 200.0 mg/kg/injection, schedule: Q01DX001 (ip), vehicle: saline with Tween-80
[6] = endpoint: mean survival time, dose: 400.0 mg/kg/injection, schedule: Q01DX001 (ip), vehicle: saline with Tween-80
[7] = endpoint: mean survival time, dose: 25.0 mg/kg/injection, schedule: Q01DX009 (ip), vehicle: saline with Tween-80
[8] = endpoint: mean survival time, dose: 50.0 mg/kg/injection, schedule: Q01DX009 (ip), vehicle: saline with Tween-80
[9] = endpoint: mean survival time, dose: 100.0 mg/kg/injection, schedule: Q01DX009 (ip), vehicle: saline with Tween-80
[10] = endpoint: mean survival time, dose: 200.0 mg/kg/injection, schedule: Q01DX009 (ip), vehicle: saline with Tween-80
[11] = endpoint: mean survival time, dose: 12.5 mg/kg/injection, schedule: Q01DX009 (ip), vehicle: saline with Tween-80
[12] = endpoint: mean survival time, dose: 100.0 mg/kg/injection, schedule: Q01DX001 (ip), vehicle: saline
[13] = endpoint: mean survival time, dose: 200.0 mg/kg/injection, schedule: Q01DX001 (ip), vehicle: saline
[14] = endpoint: mean survival time, dose: 400.0 mg/kg/injection, schedule: Q01DX001 (ip), vehicle: saline

Measured: T/C

CC(=O)OC1(C)C=C/C(=N\S(=O)(=O)c2ccc(C)cc2)c2ccccc21 (centres undefined)
inactive: [1] 95 % of control | [2] 97 % of control | [3] 95 % of control

O=C(COc1cccc(Cl)c1)Nc1cccc(NC(=O)c2ccc(S(=O)(=O)F)cc2)c1
inactive: [4] 91 % of control | [5] 90 % of control | [6] 101 % of control

O=c1[nH]cnc2c1ncn2C1OC(CO)C(O)C1O.O=c1[nH]cnc2c1ncn2C1OC(CO)C(O)C1O.[Cl][Pt][Cl] (centres undefined)
inactive: endpoint: mean survival time, dose: 12.5 mg/kg/injection, schedule: Q01DX009 (ip), vehicle: water 103 % of control | endpoint: mean survival time, dose: 25.0 mg/kg/injection, schedule: Q01DX009 (ip), vehicle: water 101 % of control | endpoint: mean survival time, dose: 50.0 mg/kg/injection, schedule: Q01DX009 (ip), vehicle: water 101 % of control | endpoint: mean survival time, dose: 100.0 mg/kg/injection, schedule: Q01DX009 (ip), vehicle: water 101 % of control | endpoint: mean survival time, dose: 200.0 mg/kg/injection, schedule: Q01DX009 (ip), vehicle: water 97 % of control

Cc1ccc(S(=O)(=O)OCCOCCOCCOS(=O)(=O)c2ccc(C)cc2)cc1
inactive: [1] 101 % of control | [2] 101 % of control | [3] 101 % of control

C=CCNC(=O)c1ccc[n+](CC(=O)Nc2ccccc2)c1
inactive: [1] 103 % of control

COc1ccc2[nH]cc(CN(C)C)c2c1
inactive: [7] 100 % of control | endpoint: mean survival time, dose: 33.0 mg/kg/injection, schedule: Q01DX009 (ip), vehicle: saline with Tween-80 101 % of control | [8] 106 % of control | [9] 105 % of control | [1] 88 % of control

Cc1cc(Br)ccc1N
inactive: [1] 97 % of control | [2] 96 % of control | [3] 97 % of control

COc1cc(Cl)ccc1NC(=O)Oc1c(Cl)cccc1Cl
inactive: [8] 104 % of control | [9] 100 % of control | [10] 100 % of control

N#Cc1nc(C#N)c(Sc2ccccc2)c(Sc2ccccc2)c1Sc1ccccc1
inactive: endpoint: mean survival time, dose: 3.12 mg/kg/injection, schedule: Q01DX009 (ip), vehicle: saline with Tween-80 103 % of control and 104 % of control | endpoint: mean survival time, dose: 6.25 mg/kg/injection, schedule: Q01DX009 (ip), vehicle: saline with Tween-80 94 % of control and 100 % of control | [11] 94 % of control | [7] 96 % of control and 102 % of control | [8] 90 % of control and 102 % of control | [9] 96 % of control and 103 % of control

CCC(NC(N)=O)C(CC)NC(N)=O (centres undefined)
inactive: endpoint: median survival time, dose: 12.5 mg/kg/injection, schedule: Q01DX009 (ip), vehicle: saline with Tween-80 97 % of control | endpoint: median survival time, dose: 25.0 mg/kg/injection, schedule: Q01DX009 (ip), vehicle: saline with Tween-80 96 % of control | endpoint: median survival time, dose: 50.0 mg/kg/injection, schedule: Q01DX009 (ip), vehicle: saline with Tween-80 90 % of control

Cc1nc2ccccc2nc1CBr
inactive: endpoint: mean survival time, dose: 12.5 mg/kg/injection, schedule: Q01DX009 (ip), vehicle: acetone 110 % of control

Cc1cc2c(C(C)C)c(O)c(O)cc2c(O)c1-c1c(C)cc2c(C(C)C)c(O)c(O)cc2c1O
inactive: endpoint: mean survival time, dose: 12.5 mg/kg/injection, schedule: Q01DX001 (ip), vehicle: saline with Tween-80 105 % of control | [11] 100 % of control | endpoint: mean survival time, dose: 25.0 mg/kg/injection, schedule: Q01DX001 (ip), vehicle: saline with Tween-80 102 % of control | [7] 94 % of control | endpoint: mean survival time, dose: 50.0 mg/kg/injection, schedule: Q01DX001 (ip), vehicle: saline with Tween-80 103 % of control | [8] 90 % of control

OC1(c2ccccc2)C(N2CCOCC2)=C(c2ccccc2)c2ccccc21 (centres undefined)
inactive: [1] 105 % of control | [2] 100 % of control | [3] 95 % of control

Cc1cc2oc(=O)c(Cl)c(NCCO)c2c(C)c1Cl
inactive: [4] 98 % of control | [5] 98 % of control | [6] 93 % of control

CC1=C(C)C(=O)O[C@@H]([C@](C)(O)[C@]2(O)CC[C@@]3(O)[C@@H]4C[C@H]5O[C@]56[C@@H](O)C=CC(=O)[C@]6(C)[C@H]4CC[C@]23C)C1
inactive: endpoint: mean survival time, dose: 1.0 mg/kg/injection, schedule: Q01DX009 (ip), vehicle: saline 113 % of control | endpoint: mean survival time, dose: 2.0 mg/kg/injection, schedule: Q01DX009 (ip), vehicle: saline 104 % of control | endpoint: mean survival time, dose: 2.0 mg/kg/injection, schedule: Q01DX009 (ip), vehicle: suspension in saline 105 % of control | endpoint: mean survival time, dose: 4.0 mg/kg/injection, schedule: Q01DX009 (ip), vehicle: saline 106 % of control | endpoint: mean survival time, dose: 4.0 mg/kg/injection, schedule: Q01DX009 (ip), vehicle: suspension in saline 108 % of control | endpoint: mean survival time, dose: 8.0 mg/kg/injection, schedule: Q01DX009 (ip), vehicle: saline 111 % of control | endpoint: mean survival time, dose: 8.0 mg/kg/injection, schedule: Q01DX009 (ip), vehicle: suspension in saline 114 % of control | endpoint: mean survival time, dose: 16.0 mg/kg/injection, schedule: Q01DX009 (ip), vehicle: saline 103 % of control | endpoint: mean survival time, dose: 16.0 mg/kg/injection, schedule: Q01DX009 (ip), vehicle: suspension in saline 108 % of control | endpoint: mean survival time, dose: 32.0 mg/kg/injection, schedule: Q01DX009 (ip), vehicle: saline 87 % of control | endpoint: mean survival time, dose: 32.0 mg/kg/injection, schedule: Q01DX009 (ip), vehicle: suspension in saline 96 % of control

Cc1ccc(NC(=O)Oc2cc(C)c(Cl)cc2C)cc1C
inactive: [8] 100 % of control | [9] 100 % of control | [10] 92 % of control

CCCCCCCCCCCCCCCCCC(CCCCCCCC)CCCCCCCC
inactive: [12] 96 % of control | [13] 94 % of control | [14] 91 % of control

COc1cc2c(cc1OC)C(CCN)=NCC2
inactive: endpoint: mean survival time, dose: 25.0 mg/kg/injection, schedule: Q01DX009 (ip), vehicle: saline sonified 98 % of control | endpoint: mean survival time, dose: 50.0 mg/kg/injection, schedule: Q01DX009 (ip), vehicle: saline sonified 98 % of control | endpoint: mean survival time, dose: 100.0 mg/kg/injection, schedule: Q01DX009 (ip), vehicle: saline sonified 93 % of control | endpoint: mean survival time, dose: 100.0 mg/kg/injection, schedule: Q04DX003 (ip), vehicle: saline 97 % of control

c1ccc2c[n+](C[n+]3ccc4ccccc4c3)ccc2c1
inactive: endpoint: mean survival time, dose: 50.0 mg/kg/injection, schedule: Q01DX009 (ip), vehicle: saline 96 % of control | endpoint: mean survival time, dose: 100.0 mg/kg/injection, schedule: Q01DX009 (ip), vehicle: saline 102 % of control | endpoint: mean survival time, dose: 200.0 mg/kg/injection, schedule: Q01DX009 (ip), vehicle: saline 102 % of control

N=C(N)SCc1ccccc1Cl
inactive: endpoint: mean survival time, dose: 1.56 mg/kg/injection, schedule: Q01DX009 (ip), vehicle: saline 101 % of control | endpoint: mean survival time, dose: 3.13 mg/kg/injection, schedule: Q01DX009 (ip), vehicle: saline 101 % of control | endpoint: mean survival time, dose: 6.25 mg/kg/injection, schedule: Q01DX009 (ip), vehicle: saline 101 % of control

CN1CCc2cc(O)cc3c2C1Cc1ccc(O)c(O)c1-3 (centres undefined)
inactive: endpoint: mean survival time, dose: 25.0 mg/kg/injection, schedule: Q04DX003 (ip), vehicle: DMSO 101 % of control | endpoint: mean survival time, dose: 50.0 mg/kg/injection, schedule: Q04DX003 (ip), vehicle: DMSO 101 % of control | endpoint: mean survival time, dose: 100.0 mg/kg/injection, schedule: Q04DX003 (ip), vehicle: DMSO 101 % of control | endpoint: mean survival time, dose: 200.0 mg/kg/injection, schedule: Q04DX003 (ip), vehicle: DMSO 102 % of control | endpoint: mean survival time, dose: 200.0 mg/kg/injection, schedule: Q04DX003 (ip), vehicle: water 105 % of control | endpoint: mean survival time, dose: 400.0 mg/kg/injection, schedule: Q04DX003 (ip), vehicle: water 102 % of control | endpoint: mean survival time, dose: 600.0 mg/kg/injection, schedule: Q04DX003 (ip), vehicle: water 102 % of control

S=C(S)NN1CCCC1
inactive: [7] 101 % of control | [8] 100 % of control | [1] 92 % of control

Cn1c(=O)c2c(ncn2CC(=O)NNC(=S)Nc2ccccc2)n(C)c1=O
inactive: endpoint: mean survival time, dose: 12.5 mg/kg/injection, schedule: Q01DX005 (ip), vehicle: distilled water + Tween-80 121 % of control | endpoint: mean survival time, dose: 25.0 mg/kg/injection, schedule: Q01DX005 (ip), vehicle: distilled water + Tween-80 121 % of control | endpoint: mean survival time, dose: 50.0 mg/kg/injection, schedule: Q01DX005 (ip), vehicle: distilled water + Tween-80 93 % of control | endpoint: mean survival time, dose: 100.0 mg/kg/injection, schedule: Q01DX005 (ip), vehicle: distilled water + Tween-80 106 % of control | endpoint: mean survival time, dose: 200.0 mg/kg/injection, schedule: Q01DX005 (ip), vehicle: distilled water + Tween-80 93 % of control

CC=C(CCCC)CCCC
inactive: [12] 107 % of control | [13] 102 % of control | [14] 103 % of control

CN(C)CC(C)(C)C(=O)c1ccccc1
inactive: endpoint: mean survival time, dose: 100.0 mg/kg/injection, schedule: Q04DX002 (ip), vehicle: saline 93 % of control
